{"source": "ChEMBL document CHEMBL1201862", "about": "“PubChem BioAssay data set” (2004)", "key": {"[1]": {"target": "T1, Replicative DNA helicase DnaB (Mycobacterium tuberculosis, UniProt P9WMR3)", "T1 sequence (P9WMR3 whole entry)": "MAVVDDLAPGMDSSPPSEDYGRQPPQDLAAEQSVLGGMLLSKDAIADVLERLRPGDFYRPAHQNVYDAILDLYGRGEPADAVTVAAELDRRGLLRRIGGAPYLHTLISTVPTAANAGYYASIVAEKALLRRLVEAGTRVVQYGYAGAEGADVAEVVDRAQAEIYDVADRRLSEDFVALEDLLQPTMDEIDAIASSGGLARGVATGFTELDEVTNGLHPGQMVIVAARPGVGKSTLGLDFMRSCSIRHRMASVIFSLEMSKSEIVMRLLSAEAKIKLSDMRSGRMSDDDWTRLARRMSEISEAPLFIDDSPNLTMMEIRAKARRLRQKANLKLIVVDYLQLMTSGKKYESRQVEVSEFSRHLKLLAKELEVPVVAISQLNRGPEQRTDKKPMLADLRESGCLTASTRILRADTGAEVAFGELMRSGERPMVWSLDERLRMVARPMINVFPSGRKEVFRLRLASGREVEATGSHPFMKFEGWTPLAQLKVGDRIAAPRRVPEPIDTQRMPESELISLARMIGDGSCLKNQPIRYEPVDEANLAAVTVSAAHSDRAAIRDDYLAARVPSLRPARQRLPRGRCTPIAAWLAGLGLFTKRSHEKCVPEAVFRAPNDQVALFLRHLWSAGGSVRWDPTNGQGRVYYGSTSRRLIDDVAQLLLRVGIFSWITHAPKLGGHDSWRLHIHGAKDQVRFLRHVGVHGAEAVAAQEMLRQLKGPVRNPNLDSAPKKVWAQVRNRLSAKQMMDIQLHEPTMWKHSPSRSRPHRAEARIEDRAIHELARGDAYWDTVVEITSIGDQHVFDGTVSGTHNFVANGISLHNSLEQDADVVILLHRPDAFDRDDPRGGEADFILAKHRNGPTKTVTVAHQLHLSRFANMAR", "experiment": "DnaB intein splicing inhibitors, dose response, biochemical, cell-free fluorescence (AID 449749)", "assay_type": "functional"}, "HEK293 [2]": {"system": "HEK293", "experiment": "cells", "details": "Homo sapiens"}, "Large T antigen": {"target": "Large T antigen (Simian virus 40, UniProt P03070)", "sequence (P03070 whole entry)": "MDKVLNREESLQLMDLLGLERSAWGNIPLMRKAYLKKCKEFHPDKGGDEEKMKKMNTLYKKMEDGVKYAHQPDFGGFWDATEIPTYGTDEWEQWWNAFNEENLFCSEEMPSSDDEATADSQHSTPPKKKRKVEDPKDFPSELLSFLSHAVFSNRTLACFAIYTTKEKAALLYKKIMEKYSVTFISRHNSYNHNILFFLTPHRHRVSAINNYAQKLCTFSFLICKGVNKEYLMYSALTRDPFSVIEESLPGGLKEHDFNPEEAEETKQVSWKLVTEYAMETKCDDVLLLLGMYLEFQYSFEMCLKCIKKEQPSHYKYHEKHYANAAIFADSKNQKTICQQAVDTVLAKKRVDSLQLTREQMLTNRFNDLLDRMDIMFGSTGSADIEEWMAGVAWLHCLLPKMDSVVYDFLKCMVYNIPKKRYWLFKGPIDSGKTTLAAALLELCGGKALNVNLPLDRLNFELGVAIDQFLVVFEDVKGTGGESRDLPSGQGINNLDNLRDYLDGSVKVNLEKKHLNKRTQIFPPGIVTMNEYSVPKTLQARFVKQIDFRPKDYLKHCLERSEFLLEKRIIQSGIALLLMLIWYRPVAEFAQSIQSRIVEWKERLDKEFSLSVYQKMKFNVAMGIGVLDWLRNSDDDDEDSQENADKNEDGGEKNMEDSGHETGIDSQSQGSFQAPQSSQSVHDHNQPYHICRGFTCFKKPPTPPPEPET", "assay_type": "functional, Betapolyomavirus macacae"}, "Protein RecA": {"target": "T2, Protein RecA (Mycobacterium tuberculosis, UniProt P9WHJ3)", "T2 sequence (P9WHJ3 whole entry)": "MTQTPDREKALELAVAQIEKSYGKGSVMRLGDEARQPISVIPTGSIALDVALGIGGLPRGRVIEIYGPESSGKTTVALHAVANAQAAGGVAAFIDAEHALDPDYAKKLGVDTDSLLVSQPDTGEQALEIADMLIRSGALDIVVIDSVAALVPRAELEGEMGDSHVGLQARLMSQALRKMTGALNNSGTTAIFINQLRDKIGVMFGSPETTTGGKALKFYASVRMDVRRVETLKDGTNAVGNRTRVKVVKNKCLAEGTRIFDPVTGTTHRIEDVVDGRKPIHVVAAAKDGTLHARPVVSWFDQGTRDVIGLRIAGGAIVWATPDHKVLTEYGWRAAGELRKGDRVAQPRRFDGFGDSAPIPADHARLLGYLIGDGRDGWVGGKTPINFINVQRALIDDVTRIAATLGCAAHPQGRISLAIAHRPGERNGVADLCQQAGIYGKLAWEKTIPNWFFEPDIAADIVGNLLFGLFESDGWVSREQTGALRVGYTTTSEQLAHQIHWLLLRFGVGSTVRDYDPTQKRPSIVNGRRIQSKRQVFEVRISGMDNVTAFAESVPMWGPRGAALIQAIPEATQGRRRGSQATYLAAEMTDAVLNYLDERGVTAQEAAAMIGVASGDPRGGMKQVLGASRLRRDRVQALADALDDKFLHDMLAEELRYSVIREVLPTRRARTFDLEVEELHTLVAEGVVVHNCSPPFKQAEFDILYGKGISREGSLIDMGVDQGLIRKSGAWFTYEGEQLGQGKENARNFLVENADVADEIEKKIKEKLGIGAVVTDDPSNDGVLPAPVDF", "experiment": "Fluorescence Cell-Free Homogeneous Dose Retest to Identify Inhibitors of RecA-Intein Splicing Activity. [Related pubchem assays (depositor defined):AID2097, AID2223, AID489010, AID492950]", "assay_type": "functional"}, "HEK293 [3]": {"system": "HEK293", "experiment": "cells", "details": "Homo sapiens", "remark": "listed apart in the source"}, "CAAX prenyl protease 2 [4]": {"target": "CAAX prenyl protease 2 (Homo sapiens, UniProt Q9Y256)", "sequence (Q9Y256 whole entry)": "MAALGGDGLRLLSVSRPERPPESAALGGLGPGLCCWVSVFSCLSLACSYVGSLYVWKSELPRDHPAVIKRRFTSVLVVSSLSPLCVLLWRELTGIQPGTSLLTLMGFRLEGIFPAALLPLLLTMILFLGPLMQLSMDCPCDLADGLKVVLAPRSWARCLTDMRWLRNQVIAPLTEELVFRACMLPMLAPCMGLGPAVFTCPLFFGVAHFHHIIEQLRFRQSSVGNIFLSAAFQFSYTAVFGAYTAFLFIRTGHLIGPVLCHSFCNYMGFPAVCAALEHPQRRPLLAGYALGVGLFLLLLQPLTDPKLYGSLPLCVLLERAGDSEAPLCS", "experiment": "human Rce1 protease inhibitors, dose response, biochemical, yeast membranes, quenched-peptide fluorescence, cherry-pick (AID 588849)"}, "Trypsin": {"target": "Trypsin (Sus scrofa, UniProt P00761)", "sequence (P00761 whole entry)": "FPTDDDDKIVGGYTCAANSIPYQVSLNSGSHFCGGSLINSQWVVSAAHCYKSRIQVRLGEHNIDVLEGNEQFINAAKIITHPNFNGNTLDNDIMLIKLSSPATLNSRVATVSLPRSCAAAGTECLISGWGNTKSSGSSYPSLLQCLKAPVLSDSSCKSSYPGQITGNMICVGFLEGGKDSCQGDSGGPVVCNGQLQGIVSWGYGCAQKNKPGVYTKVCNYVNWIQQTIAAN", "experiment": "porcine trypsin inhibitors, dose response, selectivity assay for Rce1 protease inhibitor project, biochemical, quenched peptide fluorescence, cherry-pick (AID 488789)"}, "HeLa": {"system": "HeLa", "experiment": "HeLa cell cytotoxicity, dose response, cytotoxicity control for MITF activator project, CellTiter-Glo luminescence, cherry-pick samples (AID 540259)", "assay_type": "functional, cell-based", "details": "Homo sapiens"}, "H4": {"system": "H4", "experiment": "Luminescence Cell-Based Dose Response HTS to Identify Activators of 5'UTR Stem-Loop Driven Prion Protein mRNA Translation in H4 Neuroglioblastoma Cells. [Related pubchem assays: 1829 (Project Summary), 1814 (Primary HTS)]", "assay_type": "functional", "details": "Homo sapiens"}, "[5]": {"experiment": "Luminescence Cell-Based Dose Confirmation HTS to Identify Activators of 5'UTR Stem-Loop Driven Alpha-Synuclein mRNA Translation in H4 Neuroglioblastoma Cells. [Related pubchem assays: 1829 (Project Summary), 1814 (Primary HTS)]", "assay_type": "functional"}, "[6]": {"experiment": "Luminescence Cell-Based Dose Response HTS to Identify Activators of Luciferase Translation or Activity in H4 […] Cells. [Related pubchem assays: 1829 (Project Summary), 1814 (Primary HTS)]", "assay_type": "functional"}, "CAAX prenyl protease 2 [7]": {"target": "T3, CAAX prenyl protease 2 (Saccharomyces cerevisiae S288c, UniProt Q03530)", "T3 sequence (Q03530 whole entry)": "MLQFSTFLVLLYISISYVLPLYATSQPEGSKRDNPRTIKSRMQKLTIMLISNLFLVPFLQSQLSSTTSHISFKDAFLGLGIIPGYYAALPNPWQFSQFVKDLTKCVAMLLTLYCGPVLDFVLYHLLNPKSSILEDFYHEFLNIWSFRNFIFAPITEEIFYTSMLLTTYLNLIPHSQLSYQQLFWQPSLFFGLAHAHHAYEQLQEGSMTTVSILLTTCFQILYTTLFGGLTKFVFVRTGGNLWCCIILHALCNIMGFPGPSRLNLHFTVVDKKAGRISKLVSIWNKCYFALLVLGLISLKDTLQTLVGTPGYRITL", "assay_type": "biochemical"}, "HEK293 [8]": {"system": "HEK293", "experiment": "cells", "assay_type": "functional, cell-based", "details": "Homo sapiens"}, "[9]": {"target": "T4, Nuclear receptor subfamily 0 group B member 1 (Homo sapiens, UniProt P51843)", "T4 sequence (P51843 whole entry)": "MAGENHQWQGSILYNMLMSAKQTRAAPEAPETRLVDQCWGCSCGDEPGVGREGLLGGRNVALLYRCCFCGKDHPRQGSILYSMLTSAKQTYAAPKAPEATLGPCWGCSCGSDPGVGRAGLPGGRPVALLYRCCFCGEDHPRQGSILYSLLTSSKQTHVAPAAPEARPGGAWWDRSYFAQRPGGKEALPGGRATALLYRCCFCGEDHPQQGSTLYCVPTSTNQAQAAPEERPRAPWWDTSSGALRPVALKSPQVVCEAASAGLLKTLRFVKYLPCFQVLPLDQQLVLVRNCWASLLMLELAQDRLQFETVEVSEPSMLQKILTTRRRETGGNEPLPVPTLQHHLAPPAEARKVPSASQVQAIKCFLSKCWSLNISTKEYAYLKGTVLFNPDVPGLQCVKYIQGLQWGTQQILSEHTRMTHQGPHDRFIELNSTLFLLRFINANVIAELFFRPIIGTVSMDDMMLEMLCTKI", "experiment": "Luminescence-based cell-based high throughput dose response assay for inhibitors of the orphan nuclear receptor subfamily 0, group B, member 1 (DAX1; NR0B1). [Related pubchem assays (depositor defined):AID504766, AID504790]", "assay_type": "functional"}, "[10]": {"target": "Serine/threonine-protein phosphatase (Candida dubliniensis (strain CD36 / CBS 7987 / NCPF 3949 / NRRLY-17841) (Yeast), UniProt B9W6M3)", "sequence (B9W6M3 whole entry)": "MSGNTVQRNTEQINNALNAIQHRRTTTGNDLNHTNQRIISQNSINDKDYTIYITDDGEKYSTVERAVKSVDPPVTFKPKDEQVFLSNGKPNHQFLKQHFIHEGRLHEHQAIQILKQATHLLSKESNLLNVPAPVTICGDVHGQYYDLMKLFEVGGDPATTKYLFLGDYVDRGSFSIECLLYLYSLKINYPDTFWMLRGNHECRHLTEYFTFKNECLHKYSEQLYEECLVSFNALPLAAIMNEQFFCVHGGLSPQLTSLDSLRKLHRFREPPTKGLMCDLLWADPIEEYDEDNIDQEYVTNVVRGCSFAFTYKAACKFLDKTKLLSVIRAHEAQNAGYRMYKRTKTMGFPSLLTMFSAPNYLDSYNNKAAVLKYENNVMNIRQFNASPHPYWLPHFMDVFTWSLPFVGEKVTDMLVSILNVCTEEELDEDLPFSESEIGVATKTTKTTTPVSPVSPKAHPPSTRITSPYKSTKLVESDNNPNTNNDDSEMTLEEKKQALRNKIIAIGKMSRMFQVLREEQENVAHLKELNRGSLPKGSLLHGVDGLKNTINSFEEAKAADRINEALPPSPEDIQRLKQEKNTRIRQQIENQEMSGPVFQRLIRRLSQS", "experiment": "calcineurin pathway inhibitors in yeast reporter, dose response, S. cerevisiae, CDRE-lacZ, luminescence, secondary (AID 2388);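 further: yeast reporter cells carrying a calcineurin-responsive lacZ construct stimulated with calcium chloride; luminescent beta-galactosidase reporter signal in whole cells rather than isolated phosphatase activity; potency for inhibition where a drop in reporter signal means calcineurin blockade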", "assay_type": "functional, cell-based"}, "[11]": {"experiment": "NIH-3T3 fibroblast cytotoxicity, dose response, cytotoxicity control, cell-based, fluorescence, Alamar Blue, secondary assay (AID 2327);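 further: NIH-3T3 mouse fibroblasts cultured with fluconazole at 8 µg/mL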", "assay_type": "functional"}, "[12]": {"target": "ATP-dependent molecular chaperone HSP82 (Candida albicans (strain WO-1) (Yeast), UniProt C4YTQ8)", "sequence (C4YTQ8 whole entry)": "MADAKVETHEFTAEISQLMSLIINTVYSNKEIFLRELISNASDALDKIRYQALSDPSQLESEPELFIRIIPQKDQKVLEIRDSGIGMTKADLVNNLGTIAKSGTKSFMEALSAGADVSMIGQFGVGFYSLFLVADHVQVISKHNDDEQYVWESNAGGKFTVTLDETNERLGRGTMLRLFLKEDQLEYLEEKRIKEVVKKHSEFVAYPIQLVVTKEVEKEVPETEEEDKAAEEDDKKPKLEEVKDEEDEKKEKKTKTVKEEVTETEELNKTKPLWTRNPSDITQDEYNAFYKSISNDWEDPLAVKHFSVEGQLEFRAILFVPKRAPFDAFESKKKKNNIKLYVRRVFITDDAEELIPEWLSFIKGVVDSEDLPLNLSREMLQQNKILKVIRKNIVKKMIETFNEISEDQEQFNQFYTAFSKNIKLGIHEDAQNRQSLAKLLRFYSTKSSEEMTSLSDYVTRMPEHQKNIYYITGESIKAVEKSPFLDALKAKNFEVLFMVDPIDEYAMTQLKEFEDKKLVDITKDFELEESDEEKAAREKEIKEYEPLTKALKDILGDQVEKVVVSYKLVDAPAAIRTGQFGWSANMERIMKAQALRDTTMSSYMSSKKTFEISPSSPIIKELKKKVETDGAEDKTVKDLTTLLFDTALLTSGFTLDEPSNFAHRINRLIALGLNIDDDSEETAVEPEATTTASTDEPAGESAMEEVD", "experiment": "loss of DOC-induced GRE-beta-galactosidase reporter signal, dose response, Hsp90 inhibitor project, S. cerevisiae, luminescence (AID 2400);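 further: beta-galactosidase luminescence from glucocorticoid response element reporter as proxy for Hsp90 function; inhibitor potency where signal loss means Hsp90 inhibition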", "assay_type": "functional, cell-based"}, "[13]": {"experiment": "C. albicans growth with fluconazole, confirmation, fluorescence, retest (AID 2467)", "assay_type": "functional, cell-based"}}, "note": "The source made the active and inactive calls."}
{"molecule": "O=C(CCl)Nc1ccc(N2CCCCCC2)cc1", "values": [{"measurement": "AC50", "setting": "[1]", "value": "14.3 µM (active)"}, {"measurement": "EC50", "setting": "HEK293 [2]", "value": "> 59.7 µM (inactive)"}, {"measurement": "IC50", "setting": "Large T antigen", "value": "18.9 µM (active)"}, {"measurement": "EC50", "setting": "Protein RecA", "value": "7.62 µM (active)"}, {"measurement": "EC50", "setting": "HEK293 [3]", "value": "> 59.7 µM (inactive)"}]}
{"molecule": "COc1ccc(C2C3=C(O)CC(C)(C)CC3=Nc3[nH]nc(C)c32)cc1", "note": "(stereo unspecified)", "values": [{"measurement": "AC50", "setting": "CAAX prenyl protease 2 [4]", "value": "13.5 µM (active)"}, {"measurement": "AC50", "setting": "Trypsin", "value": "> 100 µM (inactive)"}]}
{"molecule": "O=c1oc2cc(Cl)ccc2n1CSc1nc2ccccc2s1", "values": [{"measurement": "AC50", "setting": "HeLa", "value": "216 µM (active)"}, {"measurement": "EC50", "setting": "H4", "value": "50.8 µM (active)"}, {"measurement": "EC50", "setting": "[5]", "value": "24.1 µM (active)"}, {"measurement": "EC50", "setting": "[6]", "value": "24.4 µM (active)"}]}
{"molecule": "Cc1oc2c(CN3CCOCC3)c(O)ccc2c(=O)c1-c1ccccc1", "values": [{"measurement": "AC50", "setting": "CAAX prenyl protease 2 [4]", "value": "10.3 µM (active)"}, {"measurement": "AC50", "setting": "Trypsin", "value": "9.64 µM (active)"}, {"measurement": "AC50", "setting": "CAAX prenyl protease 2 [7]", "value": "11 µM (active)"}]}
{"molecule": "O=c1c2ccccc2oc2cc(-c3ccc4cc[nH]c4c3)ccc12", "values": [{"measurement": "AC50", "setting": "HeLa", "value": "53.5 µM (active)"}]}
{"molecule": "O=C(CNC(=O)c1cc(O)nc2ccccc12)Nc1ccc(F)c(F)c1", "values": [{"measurement": "IC50", "setting": "HEK293 [8]", "value": "> 67.5 µM (inactive)"}, {"measurement": "IC50", "setting": "[9]", "value": "> 67.5 µM (inactive)"}]}
{"molecule": "Cc1c(OCC(=O)NCC(O)c2ccccc2)ccc2c(-c3ccccc3)cc(=O)oc12", "note": "(stereo unspecified)", "values": [{"measurement": "EC50", "setting": "[10]", "value": "> 180 µM (inactive)"}, {"measurement": "EC50", "setting": "[11]", "value": "80.8 µM (active)"}, {"measurement": "EC50", "setting": "[12]", "value": "> 160 µM (inactive)"}, {"measurement": "EC50", "setting": "[13]", "value": "0.699 µM (active)"}]}
